Assay results: patent US6726936B1, “Antimicrobial agents” (Sumitomo Metal Mining Co., Ltd., priority 1998, dated 2004)

Legend:
[1] = NaCl concentration required to stabilize silver-chloro complex salts; format: physicochemical; conditions: for NaCl CONCENTRATION REQUIRED TO STABILIZE SILVER-CHLORO COMPLEX SALTS IN AQUEOUS SOLUTION OF 70% (w/v) ETHANOL (b) / NaCl CONCENTRATION REQUIRED TO STABILIZE SILVER-CHLORO COMPLEX SALTS IN WATER (AQUEOUS SOLUTION) (a): 25° C.
Protocol: The concentration of the chloride in the second antimicrobial agent in accordance with the present invention is not particularly limited, but it is preferable that the chloride be added in a predetermined concentration in accordance with the concentration of the silver-chloro complex salts contained in the antimicrobial agent. […] Specifically, the required concentration of the chloride to stabilize the silver-chloro complex salts (at 25° C.) has the following correlation in water or in a 70%(w/v) ethanol aqueous solution.

[2] = upper limit value of the silver-chloro complex salts in sodium chloride-water-ethanol; format: physicochemical; conditions: water and ethanol mixed in the volume ratio of 32:68, 3%(w/v) of sodium chloride
Description: For example, in the system of silver-chloro complex salts (sodium tetrachloroargentate (I))-sodium chloride-water-ethanol, the upper limit value of the silver-chloro complex salts is 46 ppm when water and ethanol was mixed in the volume ratio of 32:68 and 3%(w/v) of sodium chloride was contained therein.

[3] = silver ion concentration 0.183 ppm
[4] = silver ion concentration 0.410 ppm
[5] = silver ion concentration 2.600 ppm
[6] = silver ion concentration 8.697 ppm
[7] = silver ion concentration 42.189 ppm

[Cl][Ag-3]([Cl])([Cl])[Cl].[Na+].[Na+].[Na+] [SILVER-CHLORO COMPLEX SALTS, sodium tetrachloroargentate (I)]
ratio of NaCl concentration required in 70% ethanol to that required in water [1, 3]: 0.044 | NaCl CONCENTRATION REQUIRED TO STABILIZE SILVER-CHLORO COMPLEX SALTS IN AQUEOUS SOLUTION OF 70% (w/v) ETHANOL (b) [1, 3]: 0.128 g/L | NaCl CONCENTRATION REQUIRED TO STABILIZE SILVER-CHLORO COMPLEX SALTS IN WATER (AQUEOUS SOLUTION) (a) [1, 3]: 2.925 g/L | ratio of NaCl concentration required in 70% ethanol to that required in water [1, 4]: 0.049 | NaCl CONCENTRATION REQUIRED TO STABILIZE SILVER-CHLORO COMPLEX SALTS IN AQUEOUS SOLUTION OF 70% (w/v) ETHANOL (b) [1, 4]: 0.287 g/L | NaCl CONCENTRATION REQUIRED TO STABILIZE SILVER-CHLORO COMPLEX SALTS IN WATER (AQUEOUS SOLUTION) (a) [1, 4]: 5.850 g/L | ratio of NaCl concentration required in 70% ethanol to that required in water [1, 5]: 0.062 | NaCl CONCENTRATION REQUIRED TO STABILIZE SILVER-CHLORO COMPLEX SALTS IN AQUEOUS SOLUTION OF 70% (w/v) ETHANOL (b) [1, 5]: 1.820 g/L | NaCl CONCENTRATION REQUIRED TO STABILIZE SILVER-CHLORO COMPLEX SALTS IN WATER (AQUEOUS SOLUTION) (a) [1, 5]: 29.250 g/L | ratio of NaCl concentration required in 70% ethanol to that required in water [1, 6]: 0.107 | NaCl CONCENTRATION REQUIRED TO STABILIZE SILVER-CHLORO COMPLEX SALTS IN AQUEOUS SOLUTION OF 70% (w/v) ETHANOL (b) [1, 6]: 6.088 g/L | NaCl CONCENTRATION REQUIRED TO STABILIZE SILVER-CHLORO COMPLEX SALTS IN WATER (AQUEOUS SOLUTION) (a) [1, 6]: 57.038 g/L | ratio of NaCl concentration required in 70% ethanol to that required in water [1, 7]: 0.262 | NaCl CONCENTRATION REQUIRED TO STABILIZE SILVER-CHLORO COMPLEX SALTS IN AQUEOUS SOLUTION OF 70% (w/v) ETHANOL (b) [1, 7]: 29.532 g/L | NaCl CONCENTRATION REQUIRED TO STABILIZE SILVER-CHLORO COMPLEX SALTS IN WATER (AQUEOUS SOLUTION) (a) [1, 7]: 112.905 g/L | upper limit value of the silver-chloro complex salts [2]: 46 ppm
